Values quoted from earlier work in patent publication US5912253A, “Rapamycin derivatives” (Novartis AG, priority 1993, dated 1999).

Key:
[1] = test system: macrophilin-12 (FK-506 binding protein or FKBP-12)
[2] = in vivo

| Structure (SMILES) | binding in vivo to macrophilin-12 [1] | bioavailability [2] | solubility |
| --- | --- | --- | --- |
| C=CC[C@@H]1/C=C(\C)C[C@H](C)C[C@H](OC)[C@H]2O[C@@](O)(C(=O)C(=O)N3CCCC[C@H]3C(=O)O[C@H](/C(C)=C/[C@@H]3CC[C@@H](O)[C@H](OC)C3)[C@H](C)[C@@H](O)CC1=O)[C@H](C)C[C@@H]2OC [FK-506] | known to bind in vivo to macrophilin-12 | – | – |
| CO[C@H]1C[C@@H]2CC[C@@H](C)[C@@](O)(O2)C(=O)C(=O)N2CCCC[C@H]2C(=O)O[C@H]([C@H](C)C[C@@H]2CC[C@@H](O)[C@H](OC)C2)CC(=O)[C@H](C)/C=C(\C)[C@@H](O)[C@@H](OC)C(=O)[C@H](C)C[C@H](C)/C=C/C=C/C=C/1C [Rapamycin, rapamycin] | known to bind in vivo to macrophilin-12 | very low and variable | highly insoluble |
